From PubChem BioAssay (NCI)
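Tested at 5 concentrations; 48 h exposure; 96-well plates; endpoints linearly interpolated, else capped at highest concentration. Abbreviation: GI50, concentration required for 50% inhibition of growth. TGI denotes the concentration required for complete inhibition of growth.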

Key:
Assay in all cases: DTP human tumour cell line panel, 48 h
786-0 renal = system: 786-0 renal
A498 renal = system: A498 renal
A549 NSCLC = system: A549 NSCLC
ACHN renal = system: ACHN renal
BT-549 breast = system: BT-549 breast
CAKI-1 renal = system: CAKI-1 renal
CCRF-CEM leukemia = system: CCRF-CEM leukemia
COLO 205 colon = system: COLO 205 colon
DU-145 prostate = system: DU-145 prostate
EKVX NSCLC = system: EKVX NSCLC
HCC-2998 colon = system: HCC-2998 colon
HCT-116 colon = system: HCT-116 colon
HCT-15 colon = system: HCT-15 colon
HL-60(TB) leukemia = system: HL-60(TB) leukemia
HOP-62 NSCLC = system: HOP-62 NSCLC
HOP-92 NSCLC = system: HOP-92 NSCLC
HS 578T breast = system: HS 578T breast
HT29 colon = system: HT29 colon
K-562 leukemia = system: K-562 leukemia
KM12 colon = system: KM12 colon
LOX IMVI melanoma = system: LOX IMVI melanoma
M14 melanoma = system: M14 melanoma
MALME-3M melanoma = system: MALME-3M melanoma
MCF7 breast = system: MCF7 breast
MDA-MB-231 breast = system: MDA-MB-231 breast
MDA-MB-435 = system: MDA-MB-435
MOLT-4 leukemia = system: MOLT-4 leukemia
NCI-H226 lung = system: NCI-H226 lung
NCI-H23 lung = system: NCI-H23 lung
NCI-H460 lung = system: NCI-H460 lung
NCI-H522 lung = system: NCI-H522 lung
NCI/ADR-RES ovarian = system: NCI/ADR-RES ovarian
OVCAR-3 ovarian = system: OVCAR-3 ovarian
OVCAR-4 ovarian = system: OVCAR-4 ovarian
OVCAR-5 ovarian = system: OVCAR-5 ovarian
OVCAR-8 ovarian = system: OVCAR-8 ovarian
PC-3 prostate = system: PC-3 prostate
RPMI-8226 leukemia = system: RPMI-8226 leukemia
RXF 393 renal = system: RXF 393 renal
SF-268 CNS = system: SF-268 CNS
SF-295 CNS = system: SF-295 CNS
SF-539 CNS = system: SF-539 CNS
SK-MEL-28 melanoma = system: SK-MEL-28 melanoma
SK-MEL-5 melanoma = system: SK-MEL-5 melanoma
SK-OV-3 ovarian = system: SK-OV-3 ovarian
SN12C renal = system: SN12C renal
SNB-19 CNS = system: SNB-19 CNS
SNB-75 CNS = system: SNB-75 CNS
SR leukemia = system: SR leukemia
SW-620 colon = system: SW-620 colon
T-47D breast = system: T-47D breast
TK-10 renal = system: TK-10 renal
U251 CNS = system: U251 CNS
UACC-257 melanoma = system: UACC-257 melanoma
UACC-62 melanoma = system: UACC-62 melanoma
UO-31 renal = system: UO-31 renal

Structure (SMILES): O=c1oc2ccccc2c(Cl)c1Cl
- GI50 (786-0 renal): 5.82 µM
- TGI (786-0 renal): 18.7 µM
- GI50 (A498 renal): 10.4 µM
- TGI (A498 renal): 22.4 µM
- GI50 (A549 NSCLC): 15.5 µM
- TGI (A549 NSCLC): 32.2 µM
- GI50 (ACHN renal): 2.49 µM
- TGI (ACHN renal): 5.92 µM
- GI50 (BT-549 breast): 2.63 µM
- TGI (BT-549 breast): 9.33 µM
- GI50 (CAKI-1 renal): 2.69 µM
- TGI (CAKI-1 renal): 8.97 µM
- GI50 (CCRF-CEM leukemia): 0.595 µM
- TGI (CCRF-CEM leukemia): 30 µM
- GI50 (COLO 205 colon): 2.19 µM
- TGI (COLO 205 colon): 4.84 µM
- GI50 (DU-145 prostate): 3.02 µM
- TGI (DU-145 prostate): 12.1 µM
- GI50 (EKVX NSCLC): 11.2 µM
- TGI (EKVX NSCLC): 27.1 µM
- GI50 (HCC-2998 colon): 9.86 µM
- TGI (HCC-2998 colon): 21.8 µM
- GI50 (HCT-116 colon): 3.49 µM
- TGI (HCT-116 colon): 13.6 µM
- GI50 (HCT-15 colon): 2.24 µM
- TGI (HCT-15 colon): 6.28 µM
- GI50 (HL-60(TB) leukemia): 4.09 µM
- TGI (HL-60(TB) leukemia): 34.3 µM
- GI50 (HOP-62 NSCLC): 3.49 µM
- TGI (HOP-62 NSCLC): 14.2 µM
- GI50 (HOP-92 NSCLC): 5.71 µM
- TGI (HOP-92 NSCLC): 18.6 µM
- GI50 (HS 578T breast): 2.69 µM
- TGI (HS 578T breast): 9.71 µM
- GI50 (HT29 colon): 2.25 µM
- TGI (HT29 colon): 4.85 µM
- GI50 (K-562 leukemia): 2.63 µM
- TGI (K-562 leukemia): > 100 µM
- GI50 (KM12 colon): 3.61 µM
- TGI (KM12 colon): 13.7 µM
- GI50 (LOX IMVI melanoma): 1.76 µM
- TGI (LOX IMVI melanoma): 12.4 µM
- GI50 (M14 melanoma): 3.47 µM
- TGI (M14 melanoma): 14.1 µM
- GI50 (MALME-3M melanoma): 2.23 µM
- TGI (MALME-3M melanoma): 12.4 µM
- GI50 (MCF7 breast): 2.83 µM
- TGI (MCF7 breast): 10.6 µM
- GI50 (MDA-MB-231 breast): 2.48 µM
- TGI (MDA-MB-231 breast): 6.2 µM
- GI50 (MDA-MB-435): 3.32 µM
- TGI (MDA-MB-435): 11.4 µM
- GI50 (MOLT-4 leukemia): 3.37 µM
- TGI (MOLT-4 leukemia): > 100 µM
- GI50 (NCI-H226 lung): 10 µM
- TGI (NCI-H226 lung): 24.5 µM
- GI50 (NCI-H23 lung): 5.56 µM
- TGI (NCI-H23 lung): 18.9 µM
- GI50 (NCI-H460 lung): 3.21 µM
- TGI (NCI-H460 lung): 12.1 µM
- GI50 (NCI-H522 lung): 3.46 µM
- TGI (NCI-H522 lung): 15.5 µM
- GI50 (NCI/ADR-RES ovarian): 5.85 µM
- TGI (NCI/ADR-RES ovarian): 21.4 µM
- GI50 (OVCAR-3 ovarian): 1.94 µM
- TGI (OVCAR-3 ovarian): 4.38 µM
- GI50 (OVCAR-4 ovarian): 6.76 µM
- TGI (OVCAR-4 ovarian): 19.6 µM
- GI50 (OVCAR-5 ovarian): 14.7 µM
- TGI (OVCAR-5 ovarian): 30.1 µM
- GI50 (OVCAR-8 ovarian): 4.23 µM
- TGI (OVCAR-8 ovarian): 17.4 µM
- GI50 (PC-3 prostate): 7.51 µM
- TGI (PC-3 prostate): 24.5 µM
- GI50 (RPMI-8226 leukemia): 2.71 µM
- TGI (RPMI-8226 leukemia): 8.66 µM
- GI50 (RXF 393 renal): 1.95 µM
- TGI (RXF 393 renal): 4.31 µM
- GI50 (SF-268 CNS): 3.91 µM
- TGI (SF-268 CNS): 16.3 µM
- GI50 (SF-295 CNS): 11.7 µM
- TGI (SF-295 CNS): 28.4 µM
- GI50 (SF-539 CNS): 4.07 µM
- TGI (SF-539 CNS): 15.3 µM
- GI50 (SK-MEL-28 melanoma): 2.68 µM
- TGI (SK-MEL-28 melanoma): 7.76 µM
- GI50 (SK-MEL-5 melanoma): 4.94 µM
- TGI (SK-MEL-5 melanoma): 16.9 µM
- GI50 (SK-OV-3 ovarian): 13.3 µM
- TGI (SK-OV-3 ovarian): 87.3 µM
- GI50 (SN12C renal): 4.58 µM
- TGI (SN12C renal): 16.8 µM
- GI50 (SNB-19 CNS): 10.5 µM
- TGI (SNB-19 CNS): 22.7 µM
- GI50 (SNB-75 CNS): 2.85 µM
- TGI (SNB-75 CNS): 12.9 µM
- GI50 (SR leukemia): 2.29 µM
- TGI (SR leukemia): 65.8 µM
- GI50 (SW-620 colon): 1.51 µM
- TGI (SW-620 colon): 5.6 µM
- GI50 (T-47D breast): 2.38 µM
- TGI (T-47D breast): 6.87 µM
- GI50 (TK-10 renal): 1.88 µM
- TGI (TK-10 renal): 3.7 µM
- GI50 (U251 CNS): 2.85 µM
- TGI (U251 CNS): 8.86 µM
- GI50 (UACC-257 melanoma): 2.24 µM
- TGI (UACC-257 melanoma): 5.39 µM
- GI50 (UACC-62 melanoma): 4.82 µM
- TGI (UACC-62 melanoma): 18.1 µM
- GI50 (UO-31 renal): 1.83 µM
- TGI (UO-31 renal): 4.73 µM
